We go through 19 molecules from paper PMC12663243 (Scientific Reports, 2025).

Molecules are shown by their SMILES. pEC50: −log10 of the molar value. Where a name gives a salt, the structure may show the parent alone. Positions of bridges follow the written chain, without caps; N, C: chain ends. Non-standard residues stand in square brackets, D forms with d. Residues, ends and D or L forms follow the SMILES beside them. Hyp = O=C(O)[C@@H]1C[C@@H](O)CN1

For test [1], the target named is T1, human SSTR4 (Homo sapiens, UniProt P31391). In kind it is cell-based.
T1 sequence (P31391 whole entry): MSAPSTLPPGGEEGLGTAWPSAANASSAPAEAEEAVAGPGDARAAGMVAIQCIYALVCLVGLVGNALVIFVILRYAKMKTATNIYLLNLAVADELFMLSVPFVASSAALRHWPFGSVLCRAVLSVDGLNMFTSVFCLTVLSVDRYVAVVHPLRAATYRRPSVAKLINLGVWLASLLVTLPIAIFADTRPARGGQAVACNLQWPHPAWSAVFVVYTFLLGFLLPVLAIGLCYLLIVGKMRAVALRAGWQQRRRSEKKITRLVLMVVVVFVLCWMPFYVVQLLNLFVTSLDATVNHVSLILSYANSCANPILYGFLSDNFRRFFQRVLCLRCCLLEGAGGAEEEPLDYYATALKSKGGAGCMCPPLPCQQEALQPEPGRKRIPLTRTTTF
The next test concerns the target human SSTR1 (Homo sapiens, UniProt P30872). In kind it is cell-based.
Test [2] has as its target T1, human SSTR4. Briefly: cell-based.
A further test concerns SSTR4. The note with it: binding assays ref 48; cited from earlier work.
In the next test the test system is C57Bl/6j mice. The note with it: mouse, in vivo, ip, 5 mg/kg.

human SSTR1, sequence (P30872 whole entry): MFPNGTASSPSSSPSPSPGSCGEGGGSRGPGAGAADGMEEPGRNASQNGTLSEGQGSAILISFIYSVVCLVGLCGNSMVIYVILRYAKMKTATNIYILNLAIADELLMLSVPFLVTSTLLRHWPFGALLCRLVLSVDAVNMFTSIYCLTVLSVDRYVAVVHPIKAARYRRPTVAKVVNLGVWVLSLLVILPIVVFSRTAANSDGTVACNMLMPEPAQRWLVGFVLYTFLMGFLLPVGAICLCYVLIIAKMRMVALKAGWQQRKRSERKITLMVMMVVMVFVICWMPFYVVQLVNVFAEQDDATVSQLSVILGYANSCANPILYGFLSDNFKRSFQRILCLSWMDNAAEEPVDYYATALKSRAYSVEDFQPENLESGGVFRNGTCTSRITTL

As to `CC(C)C[C@H](NC(=O)[C@@H]1C[C@@H](O)CN1C(=O)[C@@H]1CSSC[C@H](NC(=O)[C@@H](NC(=O)[C@@H]2CCCN2)C(C)C)C(=O)N[C@@H](C)C(=O)N[C@@H](CCCCN)C(=O)N[C@@H](Cc2ccccc2)C(=O)NCC(=O)N1)C(=O)O` [Fj1A1] (H-PVCAKFGC[Hyp]L-OH; disulfide 3-8; N-terminus assumed), on human SSTR4 [1], the “decrease in potency at SSTR4” value worked out at 5000 fold. Regarding `CC(C)C[C@H](NC(=O)[C@@H]1C[C@@H](O)CN1C(=O)[C@@H]1CSSC[C@H](NC(=O)[C@@H](NC(=O)[C@@H]2CCCN2)C(C)C)C(=O)N[C@H](Cc2c[nH]c3ccccc23)C(=O)N[C@@H](CCCCN)C(=O)N[C@@H](C)C(=O)NCC(=O)N1)C(=O)O` [Fj1A3] (H-PVC[dW]KAGC[Hyp]L-OH; disulfide 3-8; N-terminus assumed), the “decrease in potency at SSTR4” value on human SSTR4 [1] was 630 fold.

Regarding `CC(C)C[C@H](NC(=O)[C@@H]1C[C@@H](O)CN1C(=O)[C@@H]1CSSC[C@H](NC(=O)[C@@H](NC(=O)[C@@H]2CCCN2)C(C)C)C(=O)N[C@H](Cc2c[nH]c3ccccc23)C(=O)N[C@@H](CCCCN)C(=O)N[C@@H](Cc2ccccc2)C(=O)N[C@@H](C)C(=O)N1)C(=O)O` [Fj1A4] (H-PVC[dW]KFAC[Hyp]L-OH; disulfide 3-8; N-terminus assumed), the “increase in potency at SSTR4” value at human SSTR4 [1] worked out at 6.2 fold. As to `CC(C)C[C@H](NC(=O)[C@@H]1CCCN1C(=O)[C@@H]1CSSC[C@H](NC(=O)[C@@H](NC(=O)[C@@H]2CCCN2)C(C)C)C(=O)N[C@H](Cc2c[nH]c3ccccc23)C(=O)N[C@@H](CCCCN)C(=O)N[C@@H](Cc2ccccc2)C(=O)NCC(=O)N1)C(=O)O` [Fj1A7] (H-PVC[dW]KFGCPL-OH; disulfide 3-8; N-terminus assumed), the “effect on SSTR1 potency” value at human SSTR1 is listed as “increase in SSTR1 potency”. The “effect on SSTR4 potency” value at human SSTR4 [1] is “virtually no effect”.

Take `CC(C)C[C@H](NC(=O)[C@@H]1C[C@@H](O)CN1C(=O)[C@@H]1CSSC[C@H](NC(=O)[C@@H](NC(=O)[C@@H]2CCCN2)C(C)C)C(=O)N[C@H](Cc2c[nH]c3ccccc23)C(=O)N[C@@H](CCCCN)C(=O)N[C@H](Cc2ccccc2)C(=O)NCC(=O)N1)C(=O)O` [Fj1A8] (H-PVC[dW]K[dF]GC[Hyp]L-OH; disulfide 3-8; N-terminus assumed): on human SSTR4 [1], the “decrease in potency at SSTR4” value was found to be 42 fold. Still for that read-out and setting: the value for `NCCCC[C@@H]1NC(=O)[C@@H](Cc2c[nH]c3ccccc23)NC(=O)[C@@H](N)CSSC[C@@H](C(=O)O)NC(=O)CNC(=O)[C@H](Cc2ccccc2)NC1=O` [Fj1A9, Cys3-D-Trp4-Lys5-Phe6-Gly7-Cys8] (H-C[dW]KFGC-OH; disulfide 1-6; N-terminus assumed) was 47 fold; that for `CC(C)C[C@H](NC(=O)[C@@H]1C[C@@H](O)CN1C(=O)[C@@H]1CSSC[C@H](N)C(=O)N[C@H](Cc2c[nH]c3ccccc23)C(=O)N[C@@H](CCCCN)C(=O)N[C@@H](Cc2ccccc2)C(=O)NCC(=O)N1)C(=O)O` [Fj1A10] (H-C[dW]KFGC[Hyp]L-OH; disulfide 1-6; N-terminus assumed) was 13 fold. Take `CC(C)[C@H](NC(=O)[C@@H]1CCCN1)C(=O)N[C@H]1CSSC[C@@H](C(=O)O)NC(=O)CNC(=O)[C@H](Cc2ccccc2)NC(=O)[C@H](CCCCN)NC(=O)[C@@H](Cc2c[nH]c3ccccc23)NC1=O` [Fj1A11] (H-PVC[dW]KFGC-OH; disulfide 3-8; N-terminus assumed): at human SSTR4 [1], the “effect on SSTR4 potency” value is recorded as “virtually equipotent”. `CC(C)C[C@H](NC(=O)[C@@H]1C[C@@H](O)CN1C(=O)[C@@H]1CSSC[C@H](NC(=O)[C@H](Cc2ccccc2)NC(=O)[C@@H](N)CC(C)C)C(=O)N[C@H](Cc2c[nH]c3ccccc23)C(=O)N[C@@H](CCCCN)C(=O)N[C@@H](Cc2ccccc2)C(=O)NCC(=O)N1)C(=O)O` [Fj1A13] (H-LFC[dW]KFGC[Hyp]L-OH; disulfide 3-8; N-terminus assumed): the “increase in potency at SSTR4” value at human SSTR4 [1] was determined as 11 fold. As for `CC(C)[C@H](NC(=O)[C@@H]1CCCN1)C(=O)N[C@H]1CSSC[C@@H](C(=O)N[C@@H](Cc2c[nH]c3ccccc23)C(=O)O)NC(=O)CNC(=O)[C@H](Cc2ccccc2)NC(=O)[C@H](CCCCN)NC(=O)[C@@H](Cc2c[nH]c3ccccc23)NC1=O` [Fj1A14] (H-PVC[dW]KFGCW-OH; disulfide 3-8; N-terminus assumed), the “increase in potency at SSTR4” value at human SSTR4 [1] came to 85 fold. Consider `CC(C)C[C@H](NC(=O)[C@@H]1C[C@@H](O)CN1C(=O)[C@@H]1CSSC[C@H](NC(=O)[C@@H](NC(=O)[C@@H]2CCCN2)C(C)C)C(=O)N[C@H](Cc2c[nH]c3ccccc23)C(=O)N[C@@H](CCCCN)C(=O)N[C@@H](Cc2ccccc2)C(=O)N[C@@H](CO)C(=O)N1)C(=O)O` [Fj1A15] (H-PVC[dW]KFSC[Hyp]L-OH; disulfide 3-8; N-terminus assumed), for which the “increase in potency at SSTR4” value at human SSTR4 [1] is 14 fold. Consider `CC(C)C[C@H](NC(=O)[C@@H]1C[C@@H](O)CN1C(=O)[C@@H]1CSSC[C@H](NC(=O)[C@@H](NC(=O)[C@@H]2CCCN2)C(C)C)C(=O)N[C@H](Cc2c[nH]c3ccccc23)C(=O)N[C@@H](CCCCN)C(=O)N[C@@H](Cc2ccccc2)C(=O)N[C@@H]([C@@H](C)O)C(=O)N1)C(=O)O` [Fj1A16] (H-PVC[dW]KFTC[Hyp]L-OH; disulfide 3-8; N-terminus assumed), for which the “effect on SSTR1 potency” value on human SSTR1 is given as “slight increase in SSTR1 activity”. Besides, at human SSTR4 [1], the “effect on SSTR4 potency” value is recorded as “retained the SSTR4 potency of Fj1”.

Take `CC(C)C[C@H](NC(=O)[C@@H]1C[C@@H](O)CN1C(=O)[C@@H]1CSSC[C@H](NC(=O)[C@@H](NC(=O)[C@@H]2CCCN2)C(C)C)C(=O)N[C@H](Cc2c[nH]c3ccccc23)C(=O)N[C@@H](CCCCN)C(=O)N[C@@H](Cc2ccccc2)C(=O)N[C@@H](CC(N)=O)C(=O)N1)C(=O)O` [Fj1A17] (H-PVC[dW]KFNC[Hyp]L-OH; disulfide 3-8; N-terminus assumed): on human SSTR4 [1], the “increase in potency at SSTR4” value came out at 6.8 fold. With `CC(C)[C@H](NC(=O)[C@@H]1CCCN1)C(=O)N[C@H]1CSSC[C@@H](C(=O)N[C@@H](Cc2c[nH]c3ccccc23)C(=O)O)NC(=O)[C@H](CO)NC(=O)[C@H](Cc2ccccc2)NC(=O)[C@H](CCCCN)NC(=O)[C@@H](Cc2c[nH]c3ccccc23)NC1=O` [Fj1A18] (H-PVC[dW]KFSCW-OH; disulfide 3-8; N-terminus assumed), the “effect on SSTR4 potency” value on human SSTR4 [1] is on record as “well tolerated”.

Consider `CC(C)[C@H](NC(=O)[C@@H]1CCCN1)C(=O)N[C@H]1CSSC[C@@H](C(=O)N[C@@H](Cc2c[nH]c3ccccc23)C(=O)O)NC(=O)[C@H]([C@@H](C)O)NC(=O)[C@H](Cc2ccccc2)NC(=O)[C@H](CCCCN)NC(=O)[C@@H](Cc2c[nH]c3ccccc23)NC1=O` [Fj1A19] (H-PVC[dW]KFTCW-OH; disulfide 3-8; N-terminus assumed), for which the “effect on SSTR4 potency” value on human SSTR4 [1] is “slight decrease in SSTR4 potency”. With `CC(C)[C@H](NC(=O)[C@@H]1CCCN1)C(=O)N[C@H]1CSSC[C@@H](C(=O)N[C@@H](Cc2c[nH]c3ccccc23)C(=O)O)NC(=O)[C@H](CC(N)=O)NC(=O)[C@H](Cc2ccccc2)NC(=O)[C@H](CCCCN)NC(=O)[C@@H](Cc2c[nH]c3ccccc23)NC1=O` [Fj1A20] (H-PVC[dW]KFNCW-OH; disulfide 3-8; N-terminus assumed), the “effect on SSTR4 potency” value at human SSTR4 [1] was “slight decrease in SSTR4 potency”. `CC(C)[C@H](NC(=O)[C@@H]1CSSC[C@H](NC(=O)[C@H](CC(N)=O)NC(=O)[C@@H](N)Cc2ccc(O)cc2)C(=O)N[C@@H](Cc2c[nH]cn2)C(=O)N[C@H](Cc2c[nH]c3ccccc23)C(=O)N[C@@H](CCCCN)C(=O)N[C@@H]([C@@H](C)O)C(=O)N1)C(=O)O` [Fj2] (H-YNCH[dW]KTCV-OH; disulfide 3-8; N-terminus assumed): the pEC50 (commonly the EC50 on a negative log10 scale, so that one unit is a factor of ten) at human SSTR4 [2] is 5.70. As to `Cc1ccc(S(=O)(=O)N[C@@H](CCN)C(=O)N[C@@H](Cc2ccccc2)C(N)=O)c2ccccc12` [J-2156], in the test with SSTR4, the “selectivity for SSTR4 over SSTR1” value is recorded as “approximately 360 fold” and the “selectivity for SSTR4 over SSTR5” value is approximately 390 fold.

Take `CN1CC[C@]23c4c5ccc(O)c4O[C@H]2[C@@H](O)C=C[C@H]3[C@H]1C5` [morphine, morphine sulfate]: in the test on C57Bl/6j mice, the duration of action entry was “shorter” and the peak efficacy entry is “higher peak efficacy than Fj1”.
